These results are taken from patent US20240300948A1, “Heterocyclic Compounds As Kinase Inhibitors” (Incyte Corporation, priority 2023, published 2024).

The target of experiment [1] is T1, catalytic domain (JH1, amino acids 826-1132) of human JAK2 (Homo sapiens, UniProt O60674).
T1 construct: catalytic domain (JH1, amino acids 826-1132) of human JAK2; FLAG (N); purchased Carna Biosciences 08-445-20N; host or cells: baculovirus expression system
Description: JAK2 LanthaScreen JH1 binding assay. The following applies: 50 nM tracer, 2 hours at 25° C., read-out: JH1 BIND IC50. As to the method:
Example A. JAK2 LanthaScreen […] Binding Assay
JAK2 JH1 binding assay utilizes catalytic domain (JH1, amino acids 826-1132) of human JAK2 expressed as N-terminal FLAG-tagged, biotinylated protein in a baculovirus expression system (Carna Biosciences, Product #08-445-20N). The assay was conducted in black 384-well polystyrene plates in a final reaction volume of 20 μL. JAK2 JH1 (1.5 nM) was incubated with compounds (100 nL serially diluted in DMSO) in the presence of 50 nM fluorescent JAK2-JH1 tracer and 0.5 nM Streptavidin-Tb cryptate (Cisbio Part #610SATLB) in assay buffer (50 mM Tris, pH=7.5, 10 mM MgCl2, 0.01% Brij-35, 0.1% BSA, 1 mM EGTA, 5% Glycerol and 5 mM DTT). Non-specific binding was accessed in the presence of 2 mM ATP. After incubation for 2 hours at 25° C., LanthaScreen signals were read on a PHERAstar FS plate reader (BMG LABTECH). Data was analyzed with IDBS XLfit and GraphPad Prism 5.0 software using a four parameter dose response curve to determine IC50 for each compound.
(In TR-FRET formats the signal depends on donor and acceptor labels being close together.)

In experiment [2] the target is T2, pseudo-kinase domain (JH2, amino-acids 536-812 with 3 surface mutations W659A, W777A, F794H) of human Wild Type JAK2 (Homo sapiens, UniProt O60674, F794H/W659A/W777A).
T2 construct: pseudo-kinase domain (JH2, amino-acids 536-812 with 3 surface mutations W659A, W777A, F794H); His (C); Avi (biotinylated) (C); purchased BPS Bioscience 79463; host or cells: baculovirus expression system
T2 sequence (O60674 536-812 W659A/W777A/F794H): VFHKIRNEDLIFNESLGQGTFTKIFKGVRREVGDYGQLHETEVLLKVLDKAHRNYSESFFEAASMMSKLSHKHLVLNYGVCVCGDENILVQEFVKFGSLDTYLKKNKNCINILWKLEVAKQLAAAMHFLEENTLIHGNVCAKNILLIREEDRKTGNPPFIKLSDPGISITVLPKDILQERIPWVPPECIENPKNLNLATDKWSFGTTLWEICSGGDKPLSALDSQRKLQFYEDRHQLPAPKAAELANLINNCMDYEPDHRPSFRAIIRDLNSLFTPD
Description: JAK2 LanthaScreen JH2-WT binding assay. Conditions: 50 nM tracer, 1 hour at 25° C., read-out: JH2 BIND WT IC50. As to the method: Example B. JAK2 LanthaScreen JH2-WT Binding Assay
(§1) JAK2 JH2-WT binding assay utilizes pseudo-kinase domain (JH2, amino-acids 536-812 with 3 surface mutations W659A, W777A, F794H) of human Wild Type JAK2 expressed as C-terminal His-Avi-tagged, biotinylated protein in a baculovirus expression system (BPS Bioscience, Catalog #79463). The assay was conducted in black 384-well polystyrene plates in a final reaction volume of 20 μL. JAK2 JH2-WT (0.145 nM) was incubated with compounds (100 nL serially diluted in DMSO) in the presence of 50 nM Fluorescent JAK2-JH2 Tracer (MedChem Express Catalog #HY-102055) and 0.25 nM Streptavidin-Tb cryptate (Cisbio Part #610SATLB) in assay buffer (50 mM Tris, pH=7.5, 10 mM MgCl2, 0.01% Brij-35, 0.1% BSA, 1 mM EGTA, 5% Glycerol and 5 mM DTT). Non-specific binding was accessed in the presence of 2 mM ATP. After incubation for 1 hour at 25° C., LanthaScreen signals were read on a PHERAstar FS plate reader (BMG LABTECH). Data was analyzed with IDBS XLfit and GraphPad Prism 5.0 software using a four parameter dose response curve to determine IC50 for each compound.

Experiment [3] addresses T3, pseudo-kinase domain (JH2, amino-acids 536-812 with 3 surface mutations W659A, W777A, F794H) of human V617F mutant JAK2 (Homo sapiens, UniProt O60674, F794H/V617F/W659A/W777A).
T3 construct: pseudo-kinase domain (JH2, amino-acids 536-812 with 3 surface mutations W659A, W777A, F794H); His (C); Avi (biotinylated) (C); purchased BPS Bioscience 79498; host or cells: baculovirus expression system
The experiment in a line: JAK2 LanthaScreen JH2-V617F binding assay. Conditions: 50 nM tracer, 1 hour at 25° C., read-out: JH2 BIND V617F IC50. As to the method: Example C. JAK2 LanthaScreen JH2-V617F Binding Assay
as §1, with “JH2-V617F” for “JH2-WT”, “V617F mutant” for “Wild Type”, “#79498).” for “#79463).”, “JH2-V617F (0.26” for “JH2-WT (0.145”

By IC50 is commonly meant the concentration at which inhibition is half-maximal.

T1 sequence (O60674 826-1132): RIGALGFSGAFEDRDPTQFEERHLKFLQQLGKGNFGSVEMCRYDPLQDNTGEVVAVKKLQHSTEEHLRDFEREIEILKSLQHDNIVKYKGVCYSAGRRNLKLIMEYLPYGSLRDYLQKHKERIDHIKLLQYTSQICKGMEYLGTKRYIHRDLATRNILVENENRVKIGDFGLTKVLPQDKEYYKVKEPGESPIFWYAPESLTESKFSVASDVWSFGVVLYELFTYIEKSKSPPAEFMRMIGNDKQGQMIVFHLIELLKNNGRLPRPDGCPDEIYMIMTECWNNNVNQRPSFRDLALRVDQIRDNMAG
T3 sequence (O60674 536-812 V617F/W659A/W777A/F794H): as the sequence (O60674 536-812 W659A/W777A/F794H) above, with V82F counted along it

Consider `CC(=O)N[C@H]1C[C@@H](N2C(=O)NCc3cnc4[nH]c(-c5cnn(C)c5)c(-c5ccc6c(cnn6C(C)C)c5)c4c32)C1` [Example 5, N-((1s,3s)-3-(9-(1-Isopropyl-1H-indazol-5-yl)-8-(1-methyl-1H-pyrazol-4-yl)-2-oxo-2,3,4,7-tetrahydro-1H-pyrrolo[3′,2′:5,6]pyrido[4,3-d]pyrimidin-1-yl)cyclobutyl) acetamide], for which the IC50 fell in the range of 500 to 1000 nM in experiment [1], 10 to 100 nM in experiment [2] and 10 to 100 nM in experiment [3].
As to `CC(C)COC(=O)N[C@@H]1CC[C@@H](N2C(=O)NCc3cnc4[nH]c(-c5cnn(C)c5)c(-c5ccc6c(cnn6C(C)C)c5)c4c32)C1` [Example 12, Isobutyl ((1R,3R)-3-(9-(1-isopropyl-1H-indazol-5-yl)-8-(1-methyl-1H-pyrazol-4-yl)-2-oxo-2,3,4,7-tetrahydro-1H-pyrrolo[3′,2′:5,6]pyrido[4,3-d]pyrimidin-1-yl)cyclopentyl) carbamate], the IC50 in experiment [1] was more than 1000 nM; in experiment [2], 10 to 100 nM; in experiment [3] it was 10 to 100 nM.
Regarding `CC(=O)N[C@H]1C[C@H](N2C(=O)NCc3cnc4[nH]c(-c5cnn(C)c5)c(-c5ccc6c(cnn6C(C)C)c5)c4c32)C1` [Example 2, N-((1r,3r)-3-(9-(1-Isopropyl-1H-indazol-5-yl)-8-(1-methyl-1H-pyrazol-4-yl)-2-oxo-2,3,4,7-tetrahydro-1H-pyrrolo[3′,2′:5,6]pyrido[4,3-d]pyrimidin-1-yl)cyclobutyl) acetamide], the figures for the IC50 in experiment [1], in experiment [2] and in experiment [3] were more than 1000 nM, 10 to 100 nM and 10 to 100 nM, respectively.
As to `COC(=O)N[C@@H]1CC[C@@H](n2c(=O)nc(OC)c3cnc4[nH]c(-c5cnn(C)c5)c(-c5ccc6c(cnn6C(C)C)c5)c4c32)C1` [Example 40, Methyl ((1R,3R)-3-(9-(1-isopropyl-1H-indazol-5-yl)-4-methoxy-8-(1-methyl-1H-pyrazol-4-yl)-2-oxo-2,7-dihydro-1H-pyrrolo[3′,2′:5,6]pyrido[4,3-d]pyrimidin-1-yl)cyclopentyl)carbamate], the IC50 in experiment [1] was more than 1000 nM; in experiment [2] it was 10 to 100 nM; in experiment [3], 100 to 500 nM.
The corresponding values for `COC(=O)N[C@@H]1CC[C@@H](N2C(=O)NCc3cnc4[nH]c(-c5cnn(C)c5)c(-c5ccc(OC6CCOC6)cc5)c4c32)C1` (mixture of isomers) [Example 27, Methyl ((1R,3R)-3-(8-(1-methyl-1H-pyrazol-4-yl)-2-oxo-9-(4-((tetrahydrofuran-3-yl)oxy)phenyl)-2,3,4,7-tetrahydro-1H-pyrrolo[3′,2′:5,6]pyrido[4,3-d]pyrimidin-1-yl)cyclopentyl)ca rbamate] are 100 to 500 nM, 10 to 100 nM and 10 to 100 nM.
Regarding `CNc1nc(=O)n([C@@H]2CC[C@@H](NC(=O)OC)C2)c2c1cnc1[nH]c(-c3cnn(C)c3)c(-c3ccc4c(cnn4C(C)C)c3)c12` [Example 42, Methyl ((1R,3R)-3-(9-(1-isopropyl-1H-indazol-5-yl)-8-(1-methyl-1H-pyrazol-4-yl)-4-(methylamino)-2-oxo-2,7-dihydro-1H-pyrrolo[3′,2′:5,6]pyrido[4,3-d]pyrimidin-1-yl)cyclopentyl)carbamate], the IC50 in experiment [1] is more than 1000 nM; in experiment [2], 10 to 100 nM; in experiment [3] it was 10 to 100 nM.
On to `COC(=O)N[C@@H]1CC[C@@H](N2C(=O)NCc3cnc4[nH]c(-c5cnn(C)c5)c(-c5ccc6c(cnn6CC6CC6)c5)c4c32)C1` [Example 23, Methyl ((1R,3R)-3-(9-(1-(cyclopropylmethyl)-1H-indazol-5-yl)-8-(1-methyl-1H-pyrazol-4-yl)-2-oxo-2,3,4,7-tetrahydro-1H-pyrrolo[3′,2′:5,6]pyrido[4,3-d]pyrimidin-1-yl)cyclopentyl) carbamate], for which the IC50 is 100 to 500 nM in experiment [1], not above 10 nM in experiment [2] and 10 to 100 nM in experiment [3].
